Data on 87 molecules can be found in a melting point compilation (Tetko et al.; mined from patent text by program, amines drawn as free bases though some values may be those of a salt).

The melting point is the temperature, or range, at which the solid turns liquid. In turn, `CC1(C)Oc2cc3c(cc2O1)OC(C)(C)O3` displayed a melting point of 122 °C.
Take `O=C(O)c1ccccc1-c1ccccc1CN1C(=O)c2ccccc2C1=O`: the melting point was 198 °C.
The same measure for `Cc1sc(-c2ccc(-c3ccccc3)cc2)nc1CCOc1ccc(OC(C)(C)C(=O)O)cc1`: 174 °C; for `CCOc1c(OC)cc(C(=O)N2CCN(C(=O)C3=Cc4cc(OC)c(OC)cc4CCC3)CC2)cc1OC`: 171 to 172 °C; for `COc1ccc(C2(C#Cc3cccc(NC(C)=O)c3)CCC(=O)CC2)cc1OC1CCCC1`: 63 to 64 °C.
With `O=Cc1ccc(-c2noc(-c3ccc(C(F)(F)F)cc3)n2)cc1` the figure was 145 to 146 °C; with `O=C(NC(=O)c1c(Cl)cccc1Cl)Nc1ccc(F)c(C(F)(F)F)c1Cl`, 227 to 230 °C.
With `COC(=O)CCCCc1ccc(NC(=O)N(CCO)C2CCN(Cc3ccccc3)CC2)cc1` the figure was 118 to 120 °C; with `CN(C)C(=O)N(C)c1nnc(S(=O)(=O)N(C)C)s1`, 101 to 103 °C; with `CC(=O)O[C@H]1[C@H](N2CCCNC2=NC#N)c2cc(C#N)ccc2OC1(C)C` (relative stereo), 245 to 246 °C.
`Cc1cc(F)ccc1-c1nc(NCCO)nc2c1CCC(=O)N2c1ccccc1F`: the melting point was 120 to 124 °C.
The same measure for `Oc1c2c(nn1-c1ccc(C(F)(F)F)cn1)CCc1ccccc1-2`: 158 to 159 °C; for `CCOC(=O)C1=C(C)NC(=O)N(C(=O)OCC)C1c1cccc([N+](=O)[O-])c1` (configuration not stated): 107 to 108 °C.
The molecule `O=C(Nc1ccc(F)cc1)NS(=O)(=O)C1CCCC1` registered a melting point of 155 to 157 °C.
As for `COC(=O)C1=C(C)NC(=O)N(C(=O)Oc2ccc([N+](=O)[O-])cc2)C1c1ccc(F)c(F)c1` (configuration not stated), the melting point is 185 to 186 °C.
The same measure for `Clc1cc(-c2ccccc2)ncn1`: 95 to 98 °C; for `CC1CC2CC(Cc3ccc(O)cc3)CCC2NC1=O` (configuration not stated): 217 to 223 °C; for `Cc1cccc(-c2nc(N)sc2-c2ccnc(-c3ccc(C(=O)NC4CCOCC4)cc3)c2)n1`: 230 to 232 °C.
The same measure for `O=C1CCC(N2Cc3cc(CNC(=O)N4CCOCC4)ccc3C2=O)C(=O)N1` (configuration not stated): 208 to 210 °C; for `CC(=O)n1ccc2c(C=O)ccc(OCc3ccccc3)c21`: 77 to 78 °C.
With `COc1cc(O)c(C(=O)C=Cc2cccnc2)c(OC)c1` the figure was 158 °C; with `Nc1cc(C=O)nc(C2CCC2)c1F`, 134 to 135 °C.
Consider `COc1ccc(-c2cccs2)c2c(OC)ccc(-c3cccs3)c12`, for which the melting point fell in the range of 216 to 218 °C.
With `Nc1ccccc1C(=O)N1CCN(CCc2ccc(Cl)cc2)CC1` the figure was 108 to 109 °C; with `CN(C)C(=O)c1cn(Cc2ccccc2)c(=O)c2c1c1cc(F)ccc1n2C`, 192 to 193 °C; with `O=C1c2ccccc2-c2c1c1ccccc1c(=O)n2CCCNS(=O)(=O)c1ccc(Br)cc1`, 241 to 243 °C.
For `CNC=Nc1ccc(-c2c[nH]cn2)cc1`, the melting point fell in the range of 189 to 190 °C.
As for `CC(C)c1nn2ccccc2c1C(O)C(C)(C)C` (configuration not stated), the melting point was 95 °C.
Molecule `O=C1Cc2cc(C(=O)[C@H]3CC[C@H]3C(=O)O)ccc2N1` (relative stereo) had a melting point of 211 to 212 °C.
The same measure for `COc1ccc(C[C@H](N[C@@H](Cc2ccccc2)C(=O)O)C(=O)NCCc2ocnc2C(=O)O)cc1`: 103 to 106 °C; for `CC(C)(C#N)c1cc(C=Cc2ccc(OS(N)(=O)=O)cc2)cc(Cn2cncn2)c1`: 151 to 152 °C.
With `COC(=O)C(O)(c1ccc(C(F)(F)F)cc1)c1ccc(C(F)(F)F)cc1` the figure was 68 °C.
The molecule `O=C(O)c1cnc(-c2nnn[nH]2)cc1-c1ccccc1` gave a melting point above 300 °C.
The same measure for `CC(C)NC(=O)Nc1ccnc(Cl)c1`: 142 to 146 °C.
As to `COC(=O)c1cccc2nc(OC)n(Cc3ccc(-c4ccccc4-c4nc(=O)o[nH]4)cc3)c12`, the melting point lay within 215 to 216 °C.
The same measure for `Cc1noc(NS(=O)(=O)c2ccsc2C(=O)Nc2cccc(C(=O)O)c2)c1Br`: 183 to 185 °C; for `CC(C)(C)OC(=O)C(CN(Cc1ccccc1)Cc1ccccc1)CC1(C(=O)NC(Cc2ccc(OC(C)(C)C)cc2)C(=O)OC(C)(C)C)CCCC1` (configuration not stated): 82 to 87 °C.
Take `CC(=O)OC1CSC(Oc2ccc3oc(C)nc3c2)C(OC(C)=O)C1OC(C)=O` (configuration not stated): the melting point came out at 168 °C.
`COCCc1nc2c(N)nc3c(c2n1CCCCNS(=O)(=O)c1ccc(F)cc1)CCCC3` yielded a melting point of 191 to 193 °C.
In the case of `CN1CCC(=C2c3cc(CO)n(C)c3CCn3ccnc32)CC1`, the melting point is 214 °C.
The same measure for `CCOC1=NC(N)=C(C(=O)OC)C(c2ccccc2F)C1C(=O)OC` (configuration not stated): 180 °C.
In turn, `Cc1[nH]c(C(=O)Nc2ccc3ncsc3c2)c(C)c1-c1nc2ccc(C(=O)c3ccccc3)cc2[nH]1` displayed a melting point of 155 to 157 °C.
`Cc1ccc(NCC2CCN(C(C)C)CC2)c(C(=O)Nc2ccc(Cl)cn2)c1`: the melting point lay within 172 to 174 °C.
The same measure for `CCCCC(=O)N(Cc1ccc(Br)cc1)[C@H](C(=O)O)C(C)C`: 123 °C; for `S=C1NCSc2ccsc21`: 136 to 138 °C.
With `COC(=O)CC1OCCN(CCc2c[nH]c3ccc(C)cc23)C1=O` (configuration not stated) the figure was 138 °C.
The same measure for `COc1ccccc1-c1cccc(-n2cnc3cc(C4=NCCN4)ccc32)c1`: 221 to 224 °C.
The molecule `COc1ccc(-n2c(CC(=O)O)c(C(=O)O)c3cc(Oc4ccc(C(F)(F)F)cc4)ccc32)cc1` had a melting point of 248 to 250 °C.
The same measure for `CCNc1nc(C)nc(O)c1C(C)C`: 180 °C; for `O=C(COc1ccc([N+](=O)[O-])cc1)NCc1ccccc1`: 125 to 126 °C; for `OC(CCn1ccnc1)c1ccccc1` (configuration not stated): 106 to 108 °C.
As to `NC(=O)c1cc2ccccc2cc1O`, the melting point was 216 to 217 °C.
Molecule `C#Cc1ccc(C#Cc2ccncc2)s1` displayed a melting point of 134 to 136 °C.
The same measure for `N=C(c1ccccc1)c1cc(F)cc(NC(=O)/C=C/c2ccccn2)c1`: 205 to 207 °C; for `COCCc1nc2c(N)nc3c(c2n1CCOCCN(C)C(=O)Nc1ccccc1)CCCC3`: 168 to 170 °C.
The same measure for `COc1ccc(N2CCC(c3cnc(N)nc3N)CC2)cc1`: 224 to 225 °C; for `Oc1ccccc1-c1nccs1`: 215 °C; for `CCOc1ccc(-c2nnc(Nc3ccc(Br)c(Cl)c3)s2)cc1`: 225 to 226 °C.
On to `CCOC(=O)c1c(-c2cccc(Cl)c2)c2cc(C(O)c3nc(-c4ccccc4)cs3)ccc2[nH]c1=O` (configuration not stated), for which the melting point is 127 °C.
`NC(=O)c1cccc2c1CC(NCCCc1c[nH]c3ccc(F)cc13)CO2` (configuration not stated): the melting point lay within 153 to 155 °C.
The same measure for `COC(=O)C1CCC(n2ccn(-c3ccc4c(c3)CCC(C#N)C4)c2=O)CC1` (configuration not stated): 116 to 118 °C.
Regarding `CN1CCC(c2cccc3ccc(C(=O)NCCCc4ccc(Cl)cc4)cc23)CC1`, the melting point fell in the range of 132 to 134 °C.
With `Clc1cc(Cl)c2cccc3c2c1N=C3NCCCCn1ccnc1` the figure was 187 to 188 °C; with `COC(=O)CN(C)C(=O)CC(Cc1cccc2ccccc12)C(=O)NC(Cc1c[nH]cn1)C(=O)NC(CC(C)C)C(O)C(=O)OC` (mixture of isomers), 75 to 79 °C; with `O=C(O)CCCC(O)c1ccc(Cl)cc1` (configuration not stated), 85 to 87 °C.
With `Nc1cc(=O)n(Cc2ccc(I)cc2)[nH]1` the figure was 158 °C.
With `CNS(=O)(=O)c1c(C)n(C)c2cc(F)ccc2c1=O` the figure was 184 °C.
As to `Cc1ccccc1N1CCc2c(N(C)C)nc3c(C)cccc3c21`, the melting point was 120 to 121 °C.
The same measure for `O=C(O)c1ccc2c(c1)Sc1ccc(F)cc1C=C2`: 273 to 275 °C.
Consider `N#Cc1nn(-c2c(Cl)cc(C(F)(F)F)cc2Cl)cc1C=NO`, for which the melting point worked out at 170 °C.
As to `Cc1ccc(CC(CC(=O)Oc2ccc([N+](=O)[O-])cc2)C(=O)Oc2ccc([N+](=O)[O-])cc2)cc1` (configuration not stated), the melting point lay in the range of 97 to 98 °C.
With `COc1ccc(-c2nc(Sc3ccc(Cl)cc3)n(C3CCCCO3)c2-c2ccc(OC)cc2)cc1` (configuration not stated) the figure was 202 to 204 °C; with `CC(=O)Nc1ccc(CBr)c(C)c1C#N`, 152 to 153 °C; with `NC(=O)c1ccc(-c2nn(-c3ccc(C(=O)O)cc3)c3ccc([N+](=O)[O-])cc23)cc1`, 320 to 322 °C.
Molecule `O=C1CCCN1c1ccc(N2C[C@H](CO)OC2=O)cc1` yielded a melting point of 148 °C.
The same measure for `COC(=O)c1cc(-c2ccccc2)c(=O)n2c1-c1sccc1S(=O)C2` (configuration not stated): 183 to 186 °C; for `COc1ccc2ncc3c(c2c1)[C@@H](O)C(OC)(OC)C[C@@H]3C`: 135 to 136 °C; for `Cc1noc(NS(=O)(=O)c2ccccc2-c2ccc(-c3ncco3)cc2CN(C)C(=O)c2ccc(Cl)cc2Cl)c1C`: 134 to 142 °C.
The same measure for `NC(=O)Cc1ccc2ccn(C3CCN(CCc4ccc(F)cc4)CC3)c2c1`: 112 to 113 °C; for `Cn1c(=O)c2c(N3CCCCC3)cccc2n2cnc(-c3noc(C4CC4)n3)c12`: 185 to 192 °C.
Take `O=[N+]([O-])c1cccc2nc[nH]c12`: the melting point was in the range of 242 to 245 °C.
The same measure for `CNC(=O)[C@@H]1C[C@H](SCc2ccc(OC)cc2)CN1C`: 82 to 84 °C.
The same measure for `O=C(Nc1cncc(Cl)n1)C1=C(O)c2ccccc2S(=O)(=O)N1`: 234 to 235 °C.
The same measure for `N#CC=Cc1ccc(C=O)cc1`: 122 °C; for `COc1cc(C=CC(=O)Nc2cnc3ccc(Cl)cc3c2-c2ccccc2C)cc(OC)c1OC(C)=O`: 277 to 278 °C.
In turn, `Cc1nc(-c2[nH]c3ccccc3c2C#N)no1` returned a melting point of 209 to 212 °C.
As to `CC(C)(C)NCc1ccc(COc2cccc3c2CN(C2CCC(=O)NC2=O)C3=O)cc1` (configuration not stated), the melting point fell in the range of 194 to 196 °C.
